Assay results reported in US6635771B2, “N-benzhydryl indole compounds” (Wyeth, priority 2001, dated 2003).

Biological target: T1, cPLA2 (Homo sapiens, UniProt P47712)
T1 sequence (P47712 1-749): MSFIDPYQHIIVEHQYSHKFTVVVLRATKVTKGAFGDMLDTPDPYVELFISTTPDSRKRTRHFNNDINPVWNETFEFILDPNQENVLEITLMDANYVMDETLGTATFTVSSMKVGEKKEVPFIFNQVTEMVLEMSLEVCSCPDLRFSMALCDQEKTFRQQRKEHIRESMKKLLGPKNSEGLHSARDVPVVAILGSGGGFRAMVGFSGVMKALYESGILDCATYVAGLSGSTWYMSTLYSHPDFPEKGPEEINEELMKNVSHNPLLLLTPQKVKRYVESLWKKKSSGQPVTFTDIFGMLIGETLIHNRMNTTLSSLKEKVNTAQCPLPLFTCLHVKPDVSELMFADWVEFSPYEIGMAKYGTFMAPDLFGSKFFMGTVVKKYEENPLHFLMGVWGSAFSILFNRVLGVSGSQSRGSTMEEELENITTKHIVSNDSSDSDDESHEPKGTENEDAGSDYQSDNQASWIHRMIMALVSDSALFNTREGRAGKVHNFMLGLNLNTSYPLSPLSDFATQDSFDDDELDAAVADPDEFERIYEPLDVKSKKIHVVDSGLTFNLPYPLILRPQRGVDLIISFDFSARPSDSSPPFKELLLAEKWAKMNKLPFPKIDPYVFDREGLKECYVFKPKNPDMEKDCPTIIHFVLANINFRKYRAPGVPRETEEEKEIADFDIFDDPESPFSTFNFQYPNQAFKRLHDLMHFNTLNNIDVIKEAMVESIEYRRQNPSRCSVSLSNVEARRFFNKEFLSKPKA
Assay: Coumarine Assay
Assay type: biochemical
Settings: 60 μM 7-hydroxycoumarinyl 6-heptenoate substrate, 4 μg cPLA2, pH 7.5, fluorescence ex 360 nm / em 460 nm; read-out: Coumarin IC50

IC50 [nM]	Structure (SMILES)
180	O=C(O)c1ccc(CCCc2c(CCNS(=O)(=O)Cc3ccccc3)n(C(c3ccccc3)c3ccccc3)c3ccc(Cl)cc23)cc1 [Example 42, 4-{3-[1-Benzhydryl-5-chloro-2-(2-phenylmethanesulfonylamino-ethyl)-1H-indol-3-yl]-propyl)-benzoic acid]
200	O=C(O)c1ccc(CCCc2c(CCNS(=O)(=O)Cc3cc(Cl)cc(Cl)c3)n(C(c3ccccc3)c3ccccc3)c3ccc(Cl)cc23)cc1 [Example 43, 4-{3-[1-benzhydryl-5-chloro-2-(2-{[(3,5-dichlorobenzyl)sulfonyl]amino}ethyl)-1H-indol-3-yl]propyl}benzoic acid]
130	Cc1cccc(C)c1CS(=O)(=O)NCCc1c(CCCc2ccc(C(=O)O)cc2)c2cc(Cl)ccc2n1C(c1ccccc1)c1ccccc1 [Example 52, 4-{3-[1-benzhydryl-5-chloro-2-(2-{[(2,6-dimethylbenzyl)sulfonyl]amino}ethyl)-1H-indoly-3-yl]propyl}benzoic acid]
280	O=C(O)c1ccc(CCCc2c(CCNS(=O)(=O)Cc3ccc(F)cc3)n(C(c3ccccc3)c3ccccc3)c3ccc(Cl)cc23)cc1 [Example 57]
300	O=C(O)c1ccc(CCCc2c(CCNS(=O)(=O)Cc3ccncc3)n(C(c3ccccc3)c3ccccc3)c3ccc(Cl)cc23)cc1 [Example 63, 4-{3-[1-benzhydryl-5-chloro-2-(2-{[(4-pyridinylmethyl)sulfonyl]amino}ethyl)-1H-indol-3-yl]propyl}benzoic acid]
150	O=C(O)c1ccc(CCCc2c(CCNS(=O)(=O)Cc3cccc(Cl)c3)n(C(c3ccccc3)c3ccccc3)c3ccc(Cl)cc23)cc1 [Example 66, 4-{3-[1-benzhydryl-5chloro-2-(2{[(3-chlorobenzyl)sulfonyl]amino}ethyl)-1H-indol-3-yl]propyl}benzoic acid]
140	O=C(O)c1ccc(CCCc2c(CCNS(=O)(=O)Cc3cc(Cl)ccc3Cl)n(C(c3ccccc3)c3ccccc3)c3ccc(Cl)cc23)cc1 [Example 67, 4-{3-[1-benzhydryl-5-chloro-2-(2-{[(2,5-dichlorobenzyl)sulfonyl]amino}ethyl)-1H-indol-3-yl]propyl}benzoic acid]
160	COc1cccc(CS(=O)(=O)NCCc2c(CCCc3ccc(C(=O)O)cc3)c3cc(Cl)ccc3n2C(c2ccccc2)c2ccccc2)c1 [Example 68, 4-{3-[1-benzhydryl-5-chloro-2-(2-{[(3-methoxybenzyl)sulfonyl]amino}ethyl)-1H-indol-3-yl]propyl}benzoic acid]
150	Nc1ccccc1CS(=O)(=O)NCCc1c(CCCc2ccc(C(=O)O)cc2)c2cc(Cl)ccc2n1C(c1ccccc1)c1ccccc1 [Example 69, 4-{3-[2-(2-{[(2-aminobenzyl)sulfonyl]amino}ethyl)-1-benzhydryl-5-chloro-1H-indol-3-yl]propyl}benzoic acid]
180	Cc1ccccc1CS(=O)(=O)NCCc1c(CCCc2ccc(C(=O)O)cc2)c2cc(Cl)ccc2n1C(c1ccccc1)c1ccccc1 [Example 70, 4-{3-[1-Benzhydryl-5-chloro-2-(2-{[(2-methylbenzyl)sulfonyl]amino}ethyl)-1H-indol-3-yl]propyl}benzoic acid]

More lines, now with the values behind:

Structure (SMILES)	IC50 [nM]
N#Cc1ccc(CS(=O)(=O)NCCc2c(CCOc3ccc(C(=O)O)cc3)c3cc(Cl)ccc3n2C(c2ccccc2)c2ccccc2)cc1 [Example 37, 4-{2-[1-Benzhydryl-5-chloro-2-(2-{[(4-cyanobenzyl)sulfonyl]amino}ethyl)-1H-indol-3-yl]ethoxy}benzoic acid]	370
O=C(O)c1ccc(OCCc2c(CCNS(=O)(=O)Cc3ccc(S(=O)(=O)N4CCCCC4)cc3)n(C(c3ccccc3)c3ccccc3)c3ccc(Cl)cc23)cc1 [Example 38, 4-(2-{1-Benzhydryl-5-chloro-2-[2-({[4-(1piperidinylsulfonyl)benzyl]sulfonyl}amino)ethyl]-1H-indol-3-yl}ethoxy)benzoic acid]	500
NS(=O)(=O)c1ccc(CS(=O)(=O)NCCc2c(CCOc3ccc(C(=O)O)cc3)c3cc(Cl)ccc3n2C(c2ccccc2)c2ccccc2)cc1 [Example 39, 4-(2-{2-[2-({[4-(Aminosulfonyl)benzyl]sulfonyl}amino)ethyl]-1-benzhydryl-5-chloro-1H-indol-3-yl}ethoxy)benzoic acid]	320
CS(=O)(=O)c1ccc(CS(=O)(=O)NCCc2c(CCOc3ccc(C(=O)O)cc3)c3cc(Cl)ccc3n2C(c2ccccc2)c2ccccc2)cc1 [Example 40, 4-(2-{1-Benzhydryl-5-chloro-2-[2-(4-methanesulfonyl-phenylmethanesulfonylamino)-ethyl]-1H-indol-3-yl}-ethoxy)-benzoic acid]	730
CCN(CC)S(=O)(=O)c1ccc(CS(=O)(=O)NCCc2c(CCOc3ccc(C(=O)O)cc3)c3cc(Cl)ccc3n2C(c2ccccc2)c2ccccc2)cc1 [Example 41, 4-(2-{1-Benzhydryl-5-chloro-2-[2-(4-diethylsulfamoyl-phenylmethanesulfonylamino) -ethyl]-1H-indol-3-yl}-ethoxy)-benzoic acid]	200
O=C(O)c1ccc(OCCc2c(CCNS(=O)(=O)CCNC(=O)c3ccccc3C(=O)O)n(C(c3ccccc3)c3ccccc3)c3ccc(Cl)cc23)cc1 [Example 48, 2-{[(2-{[(2-{1-benzhydryl-3-[2-(4-carboxyphenoxy)ethyl]-5-chloro-1H-indol-2-yl}ethyl)amino]sulfonyl}ethyl)amino]carbonyl}benzoic acid]	2350
O=C(O)c1ccc(OCCc2c(CCNS(=O)(=O)Cc3cccnc3)n(C(c3ccccc3)c3ccccc3)c3ccc(Cl)cc23)cc1 [Example 49]	1100
O=C(O)c1ccc(OCCc2c(CCNS(=O)(=O)Cc3ccncc3)n(C(c3ccccc3)c3ccccc3)c3ccc(Cl)cc23)cc1 [Example 50]	690
O=C(O)c1ccc(OCCc2c(CCNS(=O)(=O)Cc3ccccn3)n(C(c3ccccc3)c3ccccc3)c3ccc(Cl)cc23)cc1 [Example 51]	2200
O=C(O)c1ccc(OCCc2c(CCNS(=O)(=O)Cc3ccc([N+](=O)[O-])cc3)n(C(c3ccccc3)c3ccccc3)c3ccc(Cl)cc23)cc1 [Example 54, 4-{2-[1-benzhydryl-5-chloro-2-(2-{[(4-nitrobenzyl)sulfonyl]amino}ethyl)-1H-indol-3-yl]ethoxy}benzoic acid]	310
O=C(O)c1ccc(OCCc2c(CCNS(=O)(=O)Cc3cccc([N+](=O)[O-])c3)n(C(c3ccccc3)c3ccccc3)c3ccc(Cl)cc23)cc1 [Example 55, 4-{2-[1-benzhydryl-5-chloro-2-(2-{[(3-nitrobenzyl)sulfonyl]amino}ethyl)-1H-indol-3-yl]ethoxy}benzoic acid]	260
O=C(O)c1ccc(CCCc2c(CCNS(=O)(=O)Cc3ccc(C(F)(F)F)cc3)n(C(c3ccccc3)c3ccccc3)c3ccc(Cl)cc23)cc1 [Example 58, 4-(3-{1-benzhydryl-5-chloro-2-[2-({[4-(trifluoromethyl)benzyl]sulfonyl}amino)ethyl]-1H-indol-3-yl}propyl)benzoic acid]	360
O=C(O)c1ccc(CCCc2c(CCNS(=O)(=O)Cc3cccc(C(F)(F)F)c3)n(C(c3ccccc3)c3ccccc3)c3ccc(Cl)cc23)cc1 [Example 59, 4-(3-{1-benzhydryl-5-chloro-2-[2-({[3-(trifluoromethyl)benzyl]sulfonyl}amino)ethyl]-1H-indol-3-yl}propyl)benzoic acid]	290
O=C(O)c1ccc(CCCc2c(CCNS(=O)(=O)Cc3ccccn3)n(C(c3ccccc3)c3ccccc3)c3ccc(Cl)cc23)cc1 [Example 61, 4-{3-[1-benzhydryl-5-chloro-2-(2-{[(2-pyridinylmethyl)sulfonyl]amino}ethyl)-1H-indol-3-yl]propyl}benzoic acid]	340
O=C(O)c1ccc(CCCc2c(CCNS(=O)(=O)Cc3cccnc3)n(C(c3ccccc3)c3ccccc3)c3ccc(Cl)cc23)cc1 [Example 62, 4-(3-[1-benzhydryl-5-chloro-2-(2-{[(3-pyridinylmethyl)sulfonyl]amino}ethyl)-1H-indol-3-yl]propyl}benzoic acid]	380
O=C(O)c1ccc(CCCc2c(CCNS(=O)(=O)Cc3cccc([N+](=O)[O-])c3)n(C(c3ccccc3)c3ccccc3)c3ccc(Cl)cc23)cc1 [Example 65, 4-{3-[1-benzhydryl-5-chloro-2-(2-{[(3-nitrobenzyl)sulfonyl]amino}ethyl)-1H-indol-3-yl]propyl}benzoic acid]	130
O=C(O)c1ccc(OCCc2c(CCNS(=O)(=O)Cc3ccc(OC(F)(F)F)cc3)n(C(c3ccccc3)c3ccccc3)c3ccc(Cl)cc23)cc1 [Example 71, 4-{2-[1-Benzhydryl-5-chloro-2-(2-{[(4-trifluorometoxybenzyl)sulfonyl]amino}ethyl)-1H-indol-3-yl]ethoxy}benzoic acid]	450
O=C(O)c1ccc(OCCc2c(CCNS(=O)(=O)Cc3c(F)cccc3[N+](=O)[O-])n(C(c3ccccc3)c3ccccc3)c3ccc(Cl)cc23)cc1 [Example 72, 4-{2-[1-Benzhydryl-5-chloro-2-(2-{[(2-fluoro-6-nitrobenzyl)sulfonyl]amino}ethyl)-1H-indol-3-yl]ethoxy)benzoic acid]	280
